US4063022A, “Antisecretory 2-imidazolidinones” (Morton-Norwich Products, Inc., priority 1976, dated 1977)

Tested on: gastric acid secretion
Assay: modified standard pylorus-ligated secretory testing procedure in the rat
Type: in vivo, Sprague-Dawley rats
Conditions: 300 mg/kg p.o. 1 hr prior to pylorus ligation, 4 hrs after ligation; for % of Control Vol. of Gastric Secretion: control 0.5% Methocel; for % of Control Gastric Acid Output: titration to pH 7, control 0.5% Methocel
Method: Such effect is evidenced using a modified standard pyloruslighted secretory testing procedure in the rat. Sprague-Dawley rats, weighing […] and previously fasted for 24 hrs, were used. All compounds were given perorally as suspensions in 0.5% Methocel 1 hr prior to pylorus ligation. Under light ether anesthesia, the rat stomach was ligated at the pylorus region. Four hrs after ligation the conscious rat was sacrificed by a chloroform overdose. The stomach was carefully excised and its content drained into a centrifuge tube. Samples were centrifuged to separate secretions from debris. Gastric fluid volume reading and determination of sample contamination, based on debris and sample color, was made. Titration was performed on a sample aliquot of 1 ml diluted to a volume of 5 ml using distilled water. The titrant used was 0.1N NaOH. Total gastric acid output in the stomach was determined by titration to ph 7. A dose of 300 mg/kg p.o. of a compound was administered to a group of rats and its effect on the volume of gastric secretion and acid output compared to a control group receiving 0.5% Methocel p.o. The activity of each compound based on the degree of inhibition of gastric acid output is set forth in Table I.

Structure (SMILES) | % of Control Vol. of Gastric Secretion | % of Control Gastric Acid Output
CN1CCN(Cc2ccc(Cl)c(Cl)c2)C1=O [I-B, 1-(3,4-Dichlorobenzyl)-3-methyl-2-imidazolidinone] | 39.2 % of Control | 8.9 % of Control
O=C1NCCN1Cc1ccc(Cl)c(C(F)(F)F)c1 [Example 11-C, 1-(4-Chloro-3-trifluoromethylbenzyl)-2-imidazolidinone] | 23.0 % of Control | 16.8 % of Control
